Source: patent publication US6046235A, “Sulfur-containing amino acid derivatives” (Santen Pharmaceutical Co., Ltd., priority 1996, dated 2000)

What was measured:
LTA4 hydrolase [1] = conditions: literature; cited from earlier work
[2] = tested on: collagen-induced arthritis model; conditions: J. Med. Chem., 37, 3197-3199 (1994); cited from earlier work
LTA4 hydrolase [3] = molecular target: T1, LTA4 hydrolase (Cavia porcellus, UniProt P19602); test: LTA4 hydrolase inhibition (LTB4 formed from LTA4, guinea pig lung enzyme preparation); type: biochemical; conditions: Comparison Test
T1 construct: Lungs were excised from a Hartley guinea pig; from tissue; host or cells: Hartley guinea pig lung, 100,000×g supernatant, 40-70% ammonium sulfate fraction, dialyzed
T1 sequence (P19602 1-611): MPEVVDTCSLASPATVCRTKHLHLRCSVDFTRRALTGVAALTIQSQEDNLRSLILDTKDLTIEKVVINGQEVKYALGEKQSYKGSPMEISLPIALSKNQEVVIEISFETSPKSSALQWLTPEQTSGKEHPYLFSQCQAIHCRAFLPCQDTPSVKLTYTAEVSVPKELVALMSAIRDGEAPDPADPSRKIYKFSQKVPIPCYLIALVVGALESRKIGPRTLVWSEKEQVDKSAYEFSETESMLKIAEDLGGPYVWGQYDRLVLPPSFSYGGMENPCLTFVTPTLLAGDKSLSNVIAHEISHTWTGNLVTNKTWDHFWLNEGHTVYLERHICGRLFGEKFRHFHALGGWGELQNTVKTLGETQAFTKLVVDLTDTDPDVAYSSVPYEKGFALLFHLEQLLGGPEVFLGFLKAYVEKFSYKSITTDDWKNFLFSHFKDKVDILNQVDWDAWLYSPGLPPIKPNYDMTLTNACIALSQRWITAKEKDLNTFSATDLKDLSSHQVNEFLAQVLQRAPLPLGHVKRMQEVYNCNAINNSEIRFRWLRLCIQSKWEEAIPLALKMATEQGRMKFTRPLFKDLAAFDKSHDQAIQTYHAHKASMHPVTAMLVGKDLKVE
Description: Effects of the present compounds on LTA4 hydrolase were examined according to the method described in the literature.
Lungs were excised from a Hartley guinea pig (body weight: 330 g). The lungs were homogenized in phosphoric acid buffer (50 mM, pH 7.4, containing 1 mM ethylenediaminetetraacetic acid (EDTA) and 1 mM dithiothreitol (DTT) having weight three times that of the lungs under ice-cooling. The homogenate was centrifuged at low speed (800×g) for 20 minutes, centrifuged at high speed (10,000×g) for 20 minutes and ultracentrifuged (100,000×g) for 60 minutes to give a supernatant. The supernatant was brought to 40% saturation by adding a saturated aqueous ammonium sulfate solution (pH 7.0-7.2, containing 1 mM DTT) dropwise under ice-cooling and centrifuged at high speed (10,000×g) for 20 minutes. The resulting supernatant was brought to 70% saturation by adding a saturated aqueous ammonium sulfate solution (pH 7.0-7.2, containing 1 mM DTT) dropwise and centrifuged at high speed (10,000×g) for 20 minutes. The obtained pellet was dissolved in 2 ml of Tris-acetic acid buffer (20 mM, pH 7.8, containing 1 mM DTT) and dialyzed in 2 liters of the solution to give the enzyme preparation.
LTA4 used, which is the substrate, was prepared by hydrolyzing LTA4 methyl ester and dissolved in ethanol.
In order to examine effects of the present compounds on the enzyme preparation, reactions were performed under the following condition using mixed solutions consisting of the composition shown in Table 1.
HEPES buffer 50 mM, pH 7.8
Enzyme preparation 0.4-0.6 mg protein
Aqueous DTT solution 3 mM
The above-mentioned solution (50 μl ) was incubated at 37° C. for one minute. To the reaction mixture was added 100 μl of a mixed liquid of acetonitrile-ethanol-acetic acid (150:50:3, volume ratio) under ice-cooling. The mixture was allowed to stand at -20° C. for 30 minutes and centrifuged at high speed (10,000×g) for five minutes to give a supernatant. An amount of LTB4 produced in the supernatant was measured by high-speed liquid chromatography.
The degree of the inhibitory effect of each test compound on LTA4 hydrolase is expressed by the inhibition rate calculated by the following equation. [formula]
A: amount of LTB4 formed in the absence of the test compound
B: amount of LTB4 formed in the presence of the test compound
Experiments were carried out under the same conditions as those of the above-mentioned "Pharmacological Test".

SMILES: O=C(O)c1cccc(C2CO2)c1 (stereo not shown) [3-oxiranylbenzoic acid]
- inhibitory effect on LTA4 hydrolase (in words) (LTA4 hydrolase [1]): inhibitory effects on LTA4 hydrolase

SMILES: O=C(O)C1(c2ccc3c(c2)OC[C@H](Cc2ccc(-c4ccccc4)cc2)[C@H]3O)CCCC1 [(+)-1-(3S, 4R)-[3-(4-phenylbenzyl)-4-hydroxychroman-7-yl]cyclopentanecarboxylic acid]
- onset of arthritis (in words) [2]: inhibited the onset of arthritis
- inhibitory effect on LTA4 hydrolase (in words) (LTA4 hydrolase [1]): inhibitory effect on LTA4 hydrolase

SMILES: CC(C)(C)c1ccc(CSC[C@H](NC(=O)C(CS)Cc2ccccc2)C(=O)O)cc1 (stereo partly shown) [known compound [II], reference compound]
- inhibitory effect on LTA4 hydrolase relative to that of the present compound (No. 2-12) (LTA4 hydrolase [3]; ratio to compound No. 2-12): about 1/100
- inhibitory effect on LTA4 hydrolase relative to those of the present compounds (LTA4 hydrolase [3]; ratio to the present compounds): one tenth
- IC50 (LTA4 hydrolase [3]; same conditions as Pharmacological Test, read-out: IC50): 4.5 µM

SMILES: CC(CS)C(=O)N[C@@H](CSCc1ccccc1)C(=O)O (stereo partly shown) [known compound [I], reference compound]
- inhibitory effect on LTA4 hydrolase (LTA4 hydrolase [3]; even at a concentration of 10^-5 M): little inhibitory effect
